From ChEMBL document CHEMBL1667857, “Discovery of dual binding site acetylcholinesterase inhibitors identified by pharmacophore modeling and sequential virtual screening techniques” (Bioorg Med Chem Lett, 2011)
pIC50: −log10 of the molar value.

Columns and labels:
[1] = target: Acetylcholinesterase (Electrophorus electricus, UniProt O42275); test: Inhibition of electric eel AChE by Ellman's method
[2] = Selectivity index, ratio of IC50 for electric eel AChE to IC50 for BChE
[3] = target: Cholinesterase (Homo sapiens) (UniProt P06276); test: Inhibition of BChE by Ellman's method; conditions: concentration not given here
Chain of Cholinesterase (Homo sapiens) (P06276 whole entry): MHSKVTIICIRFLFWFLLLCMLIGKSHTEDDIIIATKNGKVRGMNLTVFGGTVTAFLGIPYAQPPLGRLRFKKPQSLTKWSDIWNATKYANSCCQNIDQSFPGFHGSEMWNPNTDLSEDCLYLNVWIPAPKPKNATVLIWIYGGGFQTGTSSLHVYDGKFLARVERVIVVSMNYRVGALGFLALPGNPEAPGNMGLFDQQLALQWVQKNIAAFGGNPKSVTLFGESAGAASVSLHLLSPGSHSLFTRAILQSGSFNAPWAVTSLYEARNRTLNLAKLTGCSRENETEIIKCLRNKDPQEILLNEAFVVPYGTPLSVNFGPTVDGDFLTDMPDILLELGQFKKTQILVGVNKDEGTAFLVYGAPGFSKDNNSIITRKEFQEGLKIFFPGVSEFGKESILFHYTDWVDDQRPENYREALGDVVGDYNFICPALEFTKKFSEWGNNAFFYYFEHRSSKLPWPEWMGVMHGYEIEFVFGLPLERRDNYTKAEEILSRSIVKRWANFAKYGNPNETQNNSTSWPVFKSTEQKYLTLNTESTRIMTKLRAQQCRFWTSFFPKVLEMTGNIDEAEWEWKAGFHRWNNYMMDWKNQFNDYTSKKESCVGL

Chain of Acetylcholinesterase (O42275 whole entry): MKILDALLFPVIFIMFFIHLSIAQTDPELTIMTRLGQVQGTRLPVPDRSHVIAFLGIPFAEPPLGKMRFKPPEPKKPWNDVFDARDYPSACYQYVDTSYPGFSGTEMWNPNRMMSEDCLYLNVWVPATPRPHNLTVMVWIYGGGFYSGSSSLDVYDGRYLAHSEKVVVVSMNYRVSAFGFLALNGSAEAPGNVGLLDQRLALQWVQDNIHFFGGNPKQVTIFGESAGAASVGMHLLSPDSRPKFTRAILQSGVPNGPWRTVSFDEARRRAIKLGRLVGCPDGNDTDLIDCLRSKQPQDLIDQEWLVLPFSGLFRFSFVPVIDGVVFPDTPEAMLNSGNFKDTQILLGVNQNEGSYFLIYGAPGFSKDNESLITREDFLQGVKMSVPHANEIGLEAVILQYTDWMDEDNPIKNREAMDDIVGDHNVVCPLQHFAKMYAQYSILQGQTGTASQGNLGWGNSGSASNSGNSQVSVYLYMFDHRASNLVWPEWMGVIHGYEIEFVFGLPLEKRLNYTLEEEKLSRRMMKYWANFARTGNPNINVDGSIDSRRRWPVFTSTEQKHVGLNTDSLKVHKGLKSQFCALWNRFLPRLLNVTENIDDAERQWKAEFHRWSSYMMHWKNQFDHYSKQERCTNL

| Compound | pIC50 [1] | Ratio IC50 [2] | inhibition [3] [%] |
| --- | --- | --- | --- |
| CCc1nn(CC(=O)NCCCN2C[C@H](C)C[C@@H](C)C2)c(=O)c2cc3sc(C)cc3n12 | 5.70 | 698 | – |
| O=C(C1CCN(c2nnc(N3CCCC3=O)s2)CC1)N1CCCCCC1 | 6.00 | 342 | – |
| CCOC(=O)c1c(NC(=O)CCN2CCC(C)CC2)sc2c1C[C@@H](C)CC2 | 5.22 | – | < 10 |
| Cc1ccc(OCC(=O)Nc2ccc(CN3CCCCC3)cc2)c(C)c1 | 6.00 | – | – |
| COc1ccc(Br)cc1C(=O)Nc1ccc(CN2CCCCC2)cc1 | 6.00 | – | – |
| CCN(CC)c1ccc(NC(=O)c2nc3nc(C)cc(C(F)F)n3n2)cc1 | 6.00 | – | – |
| Cc1cc(N2CCCC2)nc2ccc(NC(=O)CCC(=O)NC3CCCCC3)cc12 | 6.00 | – | – |
| O=C(CN1CCCCC1)Nc1ccc(NC(=O)CN2CCCCC2)c(Cl)c1 | 6.00 | – | – |
| CCc1nc2sc3c(NCCN(C)C)ncnc3c2c2c1CCCC2 | 6.00 | – | – |
| CCOC(=O)c1c(-c2ccc(OC)c(OC)c2)csc1NC(=O)CCN1CCC(C)CC1 | 5.48 | – | < 10 |
